Reference: ChEMBL document CHEMBL1153873, “Synthesis, antiarrhythmic and anticoagulant activities of novel thiazolo derivatives from methyl 2-(thiazol-2-ylcarbamoyl)acetate” (Eur J Med Chem, 2009)
Active and inactive are the calls of the source. The rule behind the calls is not given here.

Experiments:
[1] = system: Oryctolagus cuniculus; assay: Effect on blood pressure in New Zealand rabbit assessed arterial blood pressure at 1 mg/kg, iv after 2 hrs; format: functional
[2] = system: Oryctolagus cuniculus; assay: Increase in bleeding time in New Zealand rabbit at 1 mg/kg, po relative to control; format: organism-based; parameters: dose 1 mg/kg, route oral; settings: in vivo
[3] = system: Oryctolagus cuniculus; assay: Anticoagulant activity in New Zealand rabbit assessed as increase in activated partial thromboplastin time at 1 mg/kg, iv after 120 mins; format: functional, organism-based; parameters: dose 1 mg/kg
[4] = system: Oryctolagus cuniculus; assay: Antithrombotic effect in New Zealand rabbit assessed as time duration to occlusion at 3 mg/kg, po relative to control; format: functional
[5] = system: Oryctolagus cuniculus; assay: Anticoagulant activity in New Zealand rabbit assessed as increase in activated partial thromboplastin time at 1 mg/kg, iv relative to untreated control; format: functional
[6] = species: Oryctolagus cuniculus; assay: Stimulation of heparin cofactor-2-induced inhibition of alpha-thrombin in rabbit plasma assessed as [125I]-thrombin-heparin cofactor-2 complex formation by SDS-PAGE and autoradiography; format: cell-free
[7] = system: Plasma; assay: Anticoagulant activity in rabbit plasma assessed as increase in activated partial thromboplastin time; format: functional, cell-free; settings: Oryctolagus cuniculus
[8] = system: Oryctolagus cuniculus; assay: Anticoagulant activity in New Zealand rabbit assessed as increase in activated partial thromboplastin time at 1 mg/kg, po after 8 hrs; format: functional, organism-based; parameters: dose 1 mg/kg
[9] = system: Rattus norvegicus; assay: Antiarrhythmic activity in Ivanovas rat assessed as increase LD100 at 5 mg/kg, iv administered 5 mins before aconitine infusion; format: functional, Heart
[10] = Toxicity in rat; format: organism-based; settings: in vivo
[11] = system: Oryctolagus cuniculus; assay: Anticoagulant activity in New Zealand rabbit assessed as increase in activated partial thromboplastin time at 1 mg/kg, po after 4 hrs relative to untreated control; format: functional
[12] = species: Homo sapiens; assay: Stimulation of antithrombin-3-induced inhibition of human alpha-thrombin at 0.2 to 2000 ug/mL
[13] = species: Oryctolagus cuniculus; assay: Stimulation of antithrombin-3-induced inhibition of alpha-thrombin in rabbit plasma assessed as [125I]-thrombin-antithrombin-3 complex formation by SDS-PAGE and autoradiography; format: cell-free
[14] = species: Homo sapiens; assay: Stimulation of heparin cofactor-2-induced inhibition of human alpha-thrombin
[15] = system: Plasma; assay: Anticoagulant activity in human plasma assessed as increase in activated partial thromboplastin time; format: functional, cell-free
[16] = system: Oryctolagus cuniculus; assay: Antithrombotic effect in New Zealand rabbit assessed as incidence of complete arterial occlusion at 3 mg/kg, po relative to control; format: functional

Compound	Activity [1]	fold change (FC) [2]	Activity [3]	fold change (FC) [4]	fold change (FC) [5]	Activity [6]	Activity [7]	Activity [8]	Activity [9]	LD50 [10]	fold change (FC) [11]	Activity [12]	Activity [13]	inhibition [14]	Activity [15]	Activity [16]
O=C(CC(=O)NN1C(=O)c2ccc3c4c(ccc(c24)C1=O)C(=O)N(NC(=O)CC(=O)Nc1nccs1)C3=O)Nc1nccs1	67.4 mmHg	4.33	Active	12	7	Active	Dose-dependent effect	Active	85%	445 mg/kg	3	inactive	inactive	Active	Dose-dependent effect	24.57%
O=C(CC(=O)NN1C(=O)c2c(Cl)c(Cl)c(Cl)c(Cl)c2C1=O)Nc1nccs1	–	–	–	–	–	Active	–	–	87.1%	443 mg/kg	–	inactive	inactive	–	–	–
COC(=O)/C(C(=O)Nc1nccs1)=C1/SCC(=O)N1c1ccccc1	–	–	–	–	–	Active	–	–	83%	444 mg/kg	–	inactive	inactive	–	–	–
COC(=O)/C(C(=O)Nc1nccs1)=C1/SC=C(c2ccccc2)N1c1ccccc1	–	–	–	–	–	Active	–	–	88%	724 mg/kg	–	inactive	inactive	–	–	–
O=C(CC(=O)Nn1c(=O)c2cc3c(=O)n(NC(=O)CC(=O)Nc4nccs4)c(=O)c3cc2c1=O)Nc1nccs1	68.12 mmHg	3.28	Active	10	4	Active	Dose-dependent effect	Active	86%	336 mg/kg	2	inactive	inactive	Active	Dose-dependent effect	42.85%
COC(=O)/C(C(=O)Nc1nccs1)=C1/SC(C(C)=O)=NN1c1ccc(S(N)(=O)=O)cc1	–	–	–	–	–	Active	–	–	90.9%	456 mg/kg	–	inactive	inactive	–	–	–
CCOC(=O)C1=NN(c2ccc(Cl)cc2)/C(=C(/C(=O)Nc2nccs2)C(=O)OC)S1	–	–	–	–	–	Active	–	–	84%	435 mg/kg	–	inactive	inactive	–	–	–
COC(=O)/C(C(=O)Nc1nccs1)=C1/SC(C(C)=O)=C(C)N1c1ccccc1	–	–	–	–	–	Active	–	–	88.8%	674 mg/kg	–	inactive	inactive	–	–	–
O=C(CC(=O)Nc1nccs1)NNC(=S)[S-].[K+] [HYDRAZINECARBODITHIONIC ACID POTASSIUM SALT]	–	–	–	–	–	Active	–	–	90.15%	723 mg/kg	–	inactive	inactive	–	–	–
CCOC(=O)c1nn(-c2ccc(Br)cc2)/c(=N/NC(=O)CC(=O)Nc2nccs2)s1	–	–	–	–	–	Active	–	–	80.1%	342 mg/kg	–	inactive	inactive	–	–	–
CC(=O)c1nn(-c2ccc(S(N)(=O)=O)cc2)/c(=N/NC(=O)CC(=O)Nc2nccs2)s1	–	–	–	–	–	Active	–	–	85%	546 mg/kg	–	inactive	inactive	–	–	–
COC(=O)/C(C(=O)Nc1nccs1)=C(/S)Nc1ccccc1	–	–	–	–	–	Active	–	–	80.2%	543 mg/kg	–	inactive	inactive	–	–	–
O=C(CC(=O)Nn1c(-c2ccccc2)csc1=S)Nc1nccs1	–	–	–	–	–	Active	–	–	90.6%	292 mg/kg	–	inactive	inactive	–	–	–
COC(=O)/C(C(=O)Nc1nccs1)=C1/SC=C(C)N1c1ccccc1	–	–	–	–	–	Active	–	–	90.3%	434 mg/kg	–	inactive	inactive	–	–	–
NNC(=O)CC(=O)Nc1nccs1	–	–	–	–	–	Active	–	–	87.5%	736 mg/kg	–	inactive	inactive	–	–	–
COC(=O)/C(C(=O)Nc1nccs1)=C1/SC(C(C)=O)=NN1c1ccc(S(=O)(=O)N2C(=O)c3c(Cl)c(Cl)c(Cl)c(Cl)c3C2=O)cc1	–	–	–	–	–	Active	–	–	88%	564 mg/kg	–	inactive	inactive	–	–	–
